{"source": "patent US7196105B2", "about": "“Treatment of human multiple myeloma by curcumin” (Research Development Foundation, priority 2002, dated 2007)", "key": {"[1]": {"test_system": "multiple myeloma cell lines MM.1S, RPMI-8226 and U266", "conditions": "50 μM PS-1145; cited from earlier work"}, "U266 cells [2]": {"test_system": "U266 cells", "test": "Cytotoxic effect of vincristine with or without curcumin (MTT)", "assay_type": "cell-based, human", "conditions": "vincristine 50 μM alone, 24 h", "procedure": "The antiproliferative effects of curcumin against different multiple myeloma cell lines were determined by the MTT dye uptake method as described earlier (Manna et al., 1998). Briefly, cells (5000/well) were incubated in triplicate in a 96-well plate in the presence or absence of indicated test samples in a final volume of 0.1 ml for 24 h at 37° C. Thereafter, 0.025 ml of MTT solution (5 mg/ml in PBS) was added to each well. After a 2 h incubation at 37 ° C., 0.1 ml of extraction buffer (20% SDS, 50% dimethylformamide) was added. Incubation was continued for overnight at 37 ° C., and then the OD at 590 nm was measured using a 96-well multiscanner autoreader (Dynatech MR 5000), with extraction buffer as blank. Percent cell viability=(OD of the experiment samples/OD of the control)×100."}, "p65 subunit of NF-κB": {"test_system": "p65 subunit of NF-κB", "test": "Immunocytochemistry for NF-κB p65 localization in multiple myeloma cell lines", "assay_type": "cell-based, human", "conditions": "U266 cells, NBD-peptide 100 μM, 12 h", "procedure": "Red stain indicates the localization of p65 and blue stain (Hoechst) indicates nucleus (magnification 200×). […] U266 cells (2×10^6 cells/ml) were treated with indicated concentrations of NEMO-control or NBD-peptide (100 μM) for the indicated times. Nuclear extracts were then checked for the presence of NF-κB DNA-binding activity by EMSA. […] Untreated or NBD-peptide-treated (100 μM; 12 h) U266 cells were cytospun, and p65 immunocytochemistry was performed as described. Red stain indicates the localization of p65 and blue stain indicates nucleus (magnification 200×). […] U266 cells (2×10^6 cells/ml) were treated with indicated concentrations of NEMO-control or NBD-peptide (100 μM) for the indicated time periods, and cell viability was monitored by the trypan blue dye exclusion method. Percent cell killing was determined as: (number of trypan blue stained cells/total cells)×100. […] Stained slides were mounted with mounting medium (Sigma Colo.) and analyzed under an epifluorescence microscope (Labophot-2, Nikon, Tokyo, Japan). […] Cells with nuclear staining of NF-κB p65 or STAT3 were counted separately. One hundred cells were counted for each specimen, and the sample was graded on the basis of a 4-point scale: −, no nuclear positive cells (0%); +, low number of nuclear positive cells (<10%); ++, moderate number of nuclear positive cells (10–50%); +++, high number of nuclear positive cells (>50%)."}, "U266 cells [3]": {"test_system": "U266 cells", "test": "Cell viability by trypan blue dye exclusion after NBD peptide treatment", "assay_type": "cell-based, human", "conditions": "NBD peptide 100 μM, 24 h", "procedure": "FIG. 8A: U266 cells (2×10^6 cells/ml) were treated with indicated concentrations of NEMO-control or NBD-peptide (100 μM) for the indicated times. Nuclear extracts were then checked for the presence of NF-κB DNA-binding activity by EMSA. FIG. 8B: Untreated or NBD-peptide-treated (100 μM; 12 h) U266 cells were cytospun, and p65 immunocytochemistry was performed as described. Red stain indicates the localization of p65 and blue stain indicates nucleus (magnification 200×). FIG. 8C: U266 cells (2×10^6 cells/ml) were treated with indicated concentrations of NEMO-control or NBD-peptide (100 μM) for the indicated time periods, and cell viability was monitored by the trypan blue dye exclusion method. Percent cell killing was determined as: (number of trypan blue stained cells/total cells)×100."}}, "data": [{"compound": "O=C(Nc1cc(Cl)cc2c1[nH]c1cnccc12)c1cccnc1", "note": "[PS-1145]", "values": [{"measurement": "inhibition of proliferation", "setting": "[1]", "value": "less than 50%"}]}, {"compound": "CC[C@]1(O)C[C@H]2CN(CCc3c([nH]c4ccccc34)[C@@](C(=O)OC)(c3cc4c(cc3OC)N(C=O)[C@H]3[C@@](O)(C(=O)OC)[C@H](OC(C)=O)[C@]5(CC)C=CCN6CC[C@]43[C@@H]65)C2)C1", "note": "[vincristine, reference compound]", "values": [{"measurement": "killing of U266 cells", "setting": "U266 cells [2]", "value": "minimally effective"}]}, {"compound": "NH2-DRQIKIWFQNRRMKWKKTALDWSWLQTE-CONH2 (H-DRQIKIWFQNRRMKWKKTALDWSWLQTE-NH2) [NBD peptide, reference compound]", "values": [{"measurement": "nuclear pool of the p65 subunit of NF-κB", "setting": "p65 subunit of NF-κB", "value": "decrease in the nuclear pool of the p65 subunit of NF-κB"}, {"measurement": "suppression of cell growth", "setting": "U266 cells [3]", "value": "Approximately 32%"}]}]}
